From patent publication US12545649B2, “WDR5-MYC inhibitors” (Vanderbilt University, priority 2019, dated 2026) come the findings set out here.

The structures appear in SMILES notation. pKi: −log10 of the molar value.

The first assay deals with MYC. The assay is described as follows: ChIP: disruption of binding of MYC to chromatin. It is filed as cell-based. The settings on record: HEK293 cells expressing HA-tagged MYC, 20 μM, 10 h. The protocol: (§1) HEK293 cells expressing HA-tagged MYC and GFP were plated in growth media. Upon reaching approximately 70% confluence, cells were washed once with PBS then treated for 10 h with 20 μM compound in OptiMEM media. Cells were cross linked at room temperature in PBS containing 1% Formaldehyde for 10 minutes, then cells were scraped into 1.5 mL PBS supplemented with 125 mM Glycine. Cells were collected by centrifugation, washed once with PBS+125 mM Glycine, and pellets stored frozen. Chromatin was prepared by lysing cells at 80×10^6 per mL in ChIP Lysis Buffer (50 mM Tris pH 8.0, 140 mM NaCl, 1 mM EDTA, 1% Triton, 1% SDS and supplemented with protease inhibitor cocktail), Samples were sonicated (BioRuptor) for 30 minutes and cleared by centrifugation. Precipitation was performed essentially as described [Thomas L R 2015 Mol Cell] by diluting chromatin 1:9 in ChIP buffer without SDS. Decrosslinked DNA was diluted to 500 μL with water and 7.5 μL was used for each qPCR reaction. Percent input was calculated by comparison to a 30-fold dilution of decrosslinked chromatin. Primers used for ChIP have been described in Thomas, L. R.; Adams, C. M.; Wang, J.; Weissmiller, A. M.; Creighton, J.; Lorey, S. L.; Liu, Q.; Fesik, S. W.; Eischen, C. M.; Tansey, W. P. Interaction of the Oncoprotein Transcription Factor MYC with its Chromatin Cofactor WDR5 is Essential for Tumor Maintenance. […]
`CS(=O)(=O)c1nc(NS(=O)(=O)c2cc(Br)cc(Cl)c2O)cn1C1CCCC1` [Example 26, 5-Bromo-3-chloro-N-(1-cyclopentyl-2-(methylsulfonyl)-1H-imidazol-4-yl)-2-hydroxybenzenesulfonamide]: the “amount of MYC at ZFPM1 and ZMF771 (MYC binding independent of WDR5)” value is given as “nearly unaffected”; the “amount of MYC at loci where MYC recruitment is dependent on WDR5 (C7orf40, RNPS1, RPS14, and RPL5)” value is recorded as “reduction”.

Another assay has as its target T1, WDR5 (Homo sapiens, UniProt P61964). Kind of assay: ChIP for WDR5 binding to chromatin. It is filed as cell-based. The settings on record: HEK293 cells, 20 μM, 10 h. The protocol: as §1
For `CS(=O)(=O)c1nc(NS(=O)(=O)c2cc(Br)cc(Cl)c2O)cn1C1CCCC1` [Example 26, 5-Bromo-3-chloro-N-(1-cyclopentyl-2-(methylsulfonyl)-1H-imidazol-4-yl)-2-hydroxybenzenesulfonamide], the “WDR5 levels at these loci (ChIP for WDR5) versus negative control compound” value is recorded as “comparable levels”.

Another assay has as its target T1, WDR5. Kind of assay: Competition-based fluorescence polarization anisotropy (FPA) assay. It is filed as binding. To be noted: FITC small molecule probe. The protocol: (Thomas, […], et al, Molecular Cell 2015 (58): 440-452). Fluorescence polarization measurements were performed in 384-well plates (Greiner Bio One) using a Cytation 3 plate reader (BioTek). […] […] The assay buffer contained 200 mM phosphate, 300 mM NaCl, and 0.5 mM TCEP and 0.1% Chaps at pH 6.0. Compounds were serially diluted in assay buffer at a top concentration sufficient to yield a 9-point dose-response curve.
On the technique in general: Fluorescence polarisation rises when a labelled molecule tumbles more slowly, as on binding a larger partner.
A word on the pKi: it is the Ki on a negative log10 scale, so that one unit is a factor of ten. Read a high pKi as a low Ki. With `O=S(=O)(Nc1cn(C2CCCC2)cn1)c1cc(Br)cc(Cl)c1O` [Example 1, 5-Bromo-3-chloro-N-(1-cyclopentyl-1H-imidazol-4-yl)-2-hydroxybenzenesulfonamide], the pKi was 6.80.

For the compound `O=S(=O)(Nc1cn(CC2CC2)cn1)c1cc(Br)cc(Cl)c1O` [Example 5, 5-Bromo-3-chloro-N-(1-(cyclopropylmethyl)-1H-imidazol-4-yl)-2-hydroxybenzenesulfonamide], the pKi was 6.09.

For the compound `O=S(=O)(Nc1cn(CC2CCCO2)cn1)c1cc(Br)cc(Cl)c1O` (centres unmarked) [Example 15, 5-Bromo-3-chloro-2-hydroxy-N-(1-((tetrahydrofuran-2-yl)methyl)-1H-imidazol-4-yl)benzenesulfonamide], the pKi is 5.39.

Compound `O=S(=O)(Nc1cn(CC2CCCO2)cn1)c1cc(Br)ccc1O` (centres unmarked) [Example 16, 5-Bromo-2-hydroxy-N-(1-((tetrahydrofuran-2-yl)methyl)-1H-imidazol-4-yl)benzenesulfonamide] had a negative logarithm of the Ki (pKi) of 4.72.

As to `Cc1nc(NS(=O)(=O)c2cc(Br)cc(Cl)c2O)cn1C1CCC1` [Example 17, 5-Bromo-3-chloro-N-(1-cyclobutyl-2-methyl-1-imidazol-4-yl)-2-hydroxybenzenesulfonamide], the pKi was 6.18. This pKi is 1.46 log units higher than that of the compound before.

On to `O=S(=O)(Nc1cn(C(C2CC2)C2CC2)cn1)c1cc(Br)cc(Cl)c1O` [Example 18, 5-Bromo-3-chloro-N-(1-(dicyclopropylmethyl)-1-imidazol-4-yl)-2-hydroxybenzenesulfonamide], for which the pKi was 6.01.

In turn, `O=S(=O)(Nc1cn(C2CCNC2)cn1)c1cc(Br)cc(Cl)c1O` (centres unmarked) [Example 31, 5-Bromo-3-chloro-2-hydroxy-N-(1-(pyrrolidin-3-yl)-1H-imidazol-4-yl)benzenesulfonamide] showed a pKi of 4.99.

In the case of `O=S(=O)(Nc1cc(-c2ccccc2)[nH]n1)c1cc(Br)cc(Cl)c1O` [Example 35, 5-Bromo-3-chloro-2-hydroxy-N-(5-phenyl-1H-pyrazol-3-yl)benzenesulfonamide], the pKi was 5.96.

Take `O=S(=O)(Nc1nc2ccccc2s1)c1cc(Br)cc(Cl)c1O` [Example 37, N-(Benzo[d]thiazol-2-yl)-5-bromo-3-chloro-2-hydroxybenzenesulfonamide]: the pKi is 6.92. This pKi is 0.96 log units higher than that of the compound before.

The compound `O=S(=O)(Nc1nc2ccc(OC(F)(F)F)cc2s1)c1cc(Br)cc(Cl)c1O` [Example 40, 5-Bromo-3-chloro-2-hydroxy-N-(6-(trifluoromethoxy)benzo[d]thiazol-2-yl)benzenesulfonamide] showed a negative logarithm of the Ki (pKi) of 5.41.

Regarding `O=C(c1nc(NS(=O)(=O)c2cc(Br)cc(Cl)c2O)cn1C1CCCC1)N1CCC(C2CCNC2)CC1` (centres unmarked) [Example 54, 5-Bromo-3-chloro-N-(1-cyclopentyl-2-(4-(pyrrolidin-3-yl)piperidine-1-carbonyl)-1H-imidazol-4-yl)-2-hydroxybenzenesulfonamide], the negative-log Ki (pKi) is 6.00.
